# Patent publication US10722591B2, “Cleavable conjugates of TLR7/8 agonist compounds, methods for preparation, and uses thereof” (Dynavax Technologies Corporation, priority 2017, dated 2020)
# What was measured:
# CT26 colon carcinoma [1] = experiment: Tumor growth inhibition, weekly intratumoral doses, CT26 tumor bearing mice (Example B3); assay type: in vivo, Balb/c mice; conditions: intratumoral on days 8, 16, 23; 1 μg molar equivalent of IMDQ (64-53a, 64-54a) or 0.63 ug (64-10a); to day 27
# Protocol: The effect of weekly intratumoral doses of Compound No. 64-53a, Compound No. 64-54a, Compound No. 64-10a, or a PBS vehicle control on tumor growth inhibition was assessed in syngeneic CT26 colon carcinoma-bearing Balb/c mice. Compound No. 64-53a differs from Compound No. 64-53 in that it contains a monomethyl group adjacent to the disulfide cleavable linker rather than the disulfide variant. Compound No. 64-54a differs from Compound No. 64-54 in that it contains a (PEG)4 to the N-terminus of the peptide cleavable linker rather than a (PEG)12 variant. […] Compound No. 64-10a is the free amine (i.e., unconjugated) form of Compound No. 64-10, the structure of which is shown in Table 1. All in vivo procedures were conducted in accordance with approved Institutional Animal Care and Use Committee (IACUC) protocols. The animals were housed in a facility that is accredited by the Association for Accreditation and Laboratory Animal Care (AALAC, Frederick, Md.). […]
# On day 0, mice were anesthetized with 1% isoflurane and 80,000 CT26 tumor cells in 200 μL of RMPI-1640 culture media plus 2.5% FBS were injected subcutaneously in the right flank. […] Tumor sizes were measured twice weekly from day 7 through day 27 with calipers, with tumor volumes calculated using the following formula: length, multiplied by width, multiplied by width, divided by 2.
# TLR7 = target: T1, TLR7 (Homo sapiens, UniProt Q9NYK1); experiment: TLR7 in vitro potency; assay type: cell-based
# T1 sequence (Q9NYK1 27-1049): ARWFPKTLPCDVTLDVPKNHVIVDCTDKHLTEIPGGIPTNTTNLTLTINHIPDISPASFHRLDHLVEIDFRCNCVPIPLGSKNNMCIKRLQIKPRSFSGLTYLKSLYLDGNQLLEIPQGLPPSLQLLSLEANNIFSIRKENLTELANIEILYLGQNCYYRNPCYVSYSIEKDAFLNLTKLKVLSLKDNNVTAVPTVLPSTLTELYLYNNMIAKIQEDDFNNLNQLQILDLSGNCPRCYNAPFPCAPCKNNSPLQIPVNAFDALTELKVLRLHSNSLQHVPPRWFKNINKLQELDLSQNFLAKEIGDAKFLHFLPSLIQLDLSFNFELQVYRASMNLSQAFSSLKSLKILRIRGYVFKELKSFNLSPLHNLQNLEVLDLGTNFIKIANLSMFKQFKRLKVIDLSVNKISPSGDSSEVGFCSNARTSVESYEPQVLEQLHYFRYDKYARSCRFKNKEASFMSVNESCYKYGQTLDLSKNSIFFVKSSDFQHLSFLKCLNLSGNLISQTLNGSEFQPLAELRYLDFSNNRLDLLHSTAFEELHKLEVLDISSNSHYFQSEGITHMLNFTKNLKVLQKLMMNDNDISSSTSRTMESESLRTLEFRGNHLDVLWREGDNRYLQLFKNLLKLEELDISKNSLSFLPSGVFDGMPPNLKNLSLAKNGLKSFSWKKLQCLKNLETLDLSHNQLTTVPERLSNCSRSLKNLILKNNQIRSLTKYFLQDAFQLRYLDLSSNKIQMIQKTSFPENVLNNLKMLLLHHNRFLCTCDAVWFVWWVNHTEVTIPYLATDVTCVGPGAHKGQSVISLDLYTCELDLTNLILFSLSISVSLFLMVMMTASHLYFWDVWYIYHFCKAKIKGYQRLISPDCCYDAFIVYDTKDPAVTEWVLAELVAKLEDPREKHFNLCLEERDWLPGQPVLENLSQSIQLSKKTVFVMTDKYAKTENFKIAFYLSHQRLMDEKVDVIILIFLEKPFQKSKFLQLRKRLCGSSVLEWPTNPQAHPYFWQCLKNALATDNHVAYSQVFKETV
# CT26 colon carcinoma [2] = experiment: Tumor growth inhibition, weekly intratumoral doses, CT26 tumor bearing mice (Example B4); assay type: in vivo, Balb/c mice; conditions: 500 ng IMDQ equivalent mass intratumorally on days 9, 16, 23 and 28; single flank tumor
# Protocol: Compound No. 64-70 is a non-cleavable variant. All in vivo procedures were conducted in accordance with approved Institutional Animal Care and Use Committee (IACUC) protocols. The animals were housed in a facility that is accredited by the Association for Accreditation and Laboratory Animal Care (AALAC, Frederick, Md.). Wild-type female Balb/c mice (15-20 g) were obtained from Envigo (Hayward, Calif.) and acclimated for 2-3 days prior to use.
# On experimental day 0, mice were anesthetized with 1% isoflurane and 80,000 CT26 tumor cells in 200 μL of RMPI-1640 culture media plus 2.5% FBS were injected subcutaneously in the right flank. Tumors were allowed to grow until they were ˜50 mm^3, at which point animals were assigned to groups, 8 mice per group, to begin treatment. […] Tumor sizes were measured twice weekly from day 7 through day 30 with calipers, with tumor volumes calculated using the following formula: length, multiplied by width, multiplied by width, divided by 2.
# CD86 = experiment: APC maturation marker CD86 by flow cytometry after subcutaneous footpad injection; assay type: in vivo, BALB/c mice; conditions: 1.8 μg IMDQ molar equivalents, both hind footpads, 24 hours
# Protocol: Popliteal lymph nodes and spleens were harvested after 24 hours, and single cell suspensions were prepared for subsequent staining and analysis by flow cytometry using antibodies to cell surface markers to identify different APCs and lymphocyte cell populations.
# [3] = system: IL-6, IL-12p40, and TNFα protein levels; experiment: Serum cytokine levels by ELISA after single subcutaneous footpad injection; assay type: in vivo, BALB/c mice; conditions: 2 hours after footpad injection
# Protocol: (§1) Blood was drawn after 2 hours, serum samples were prepared and the IL-6, IL-12p40, and TNFα protein levels were measured by ELISA. Lower limit of quantification (LLOQ) for each of these assays was 31.3 pg/mL, and the dotted lines on graphs represent the LLOQ multiplied by serum dilution factor. Popliteal lymph nodes (draining node for the site of injection) were removed after 6 hours and stored in RNAlater (Qiagen, Hilden Del.) prior to tissue homogenization and isolation of RNA for gene expression analysis by TaqMan® using a StepOnePlus Real Time PCR system (Applied Biosystems, Foster City Calif.). Gene expression data are expressed as fold increase in gene induction relative to PBS control (mean±SEM).
# [4] = system: interferon-related genes (TLR7-mediated gene induction); experiment: Gene expression in popliteal lymph nodes after single subcutaneous footpad injection; assay type: in vivo, BALB/c mice; conditions: 0.04 μg
# Protocol: as §1
# CT26 colon carcinoma [5] = experiment: Tumor growth inhibition in combination with anti-PD-1, two contralateral CT26 tumors (Example B6); assay type: in vivo, Balb/c mice; conditions: 500 ng IMDQ equivalent intratumorally in combination with anti-PD-1 250 μg intraperitoneally
# Protocol: All in vivo procedures were conducted in accordance with approved Institutional Animal Care and Use Committee (IACUC) protocols. The animals were housed in a facility that is accredited by the Association for Accreditation and Laboratory Animal Care (AALAC, Frederick, Md.). Wild-type female Balb/c mice (15-20 g) were obtained from Envigo (Hayward, Calif.) and acclimated for 2-3 days prior to use. On experimental day 0, mice were anesthetized with 1% isoflurane, and 80,000 CT26 tumor cells in 200 uL of RMPI-1640 culture media plus 2.5% fetal bovine serum were injected subcutaneously in both the right and left flanks. Tumors (left and right) were allowed to grow until day 9, when the right and left flank tumor sizes had reached approximately 35 mm^3, at which point mice were injected intraperitoneally with 250 μg of anti-PD-1 antibody formulated in PBS or a PBS vehicle control. The anti-PD-1 treatments were repeated on experimental days 12, 16, 20, 23, and 28. On experimental day 15, when the right (injected) and left (distal) flank tumors had reached approximately 100 mm^3, mice were randomized into treatment groups with 10 mice per group. […] Tumor sizes were measured twice weekly from days 15 through day 30 with calipers, with tumor volumes calculated using the formula: length, multiplied by width, multiplied by width, divided by 2.
compound,measurement,setting,value
"CCCCCCCCCCCCCC(=O)NCc1ccc(Cn2c(CCCC)nc3c(N)nc4ccccc4c32)cc1 [Compound No. 64-10a, N-(4-((4-amino-2-butyl-1H-imidazo[4,5-c]quinolin-1-yl)methyl)benzyl)tetradecanamide]",CT26 tumor growth control compared to the vehicle control,CT26 colon carcinoma [1],significant CT26 tumor growth control
same,EC50,TLR7,2 nM
same,in vitro and in vivo TLR7 agonist potency relative to IMDQ,TLR7; data not shown,equal in vitro and in vivo TLR7 agonist potency to IMDQ
CCCCc1nc2c(N)nc3ccccc3c2n1Cc1ccc(CNC(=O)OCc2ccc(SCCNC(=O)CN=[N+]=[N-])cc2)cc1 [Compound No. 64-70],CT26 tumor growth inhibition,CT26 colon carcinoma [2],no CT26 tumor growth inhibition
"CCCCc1nc2c(N)nc3ccccc3c2n1Cc1ccc(CN)cc1 [IMDQ, 1-(4-aminomethylbenzyl)-2-butyl-1H-imidazo[4,5-c]quinolin-4-amine]",expression level of APC maturation marker CD86 in popliteal lymph nodes,CD86,induced activation/maturation of cells
same,expression level of CD86 on APCs in the spleen,CD86,comparable
same,serum IL-12p40,[3]; 1 μg,levels above background
same,serum IL-6,[3]; 5 μg,elevated levels
same,serum IL-12p40,[3]; 5 μg,elevated levels
same,serum TNFα,[3]; 5 μg,elevated levels
same,gene expression response in popliteal lymph nodes at the lowest dose,[4],induced gene expression
same,tumor growth control in the injected tumor,CT26 colon carcinoma [5],comparable improvements in tumor growth control over either agent administered individually
same,tumor growth control in the uninjected tumor,CT26 colon carcinoma [5],comparable improvements in tumor growth control over either agent administered individually
